The record followed here is patent publication US5354676A, “Recombinant modified thermostable NAD-dependent dehydrogenases and process for their production” (The University of Bristol, priority 1989, dated 1994).

Experiment [1] has as its target T1, Bacillus stearothermophilus L-lactate dehydrogenase variant GG (235-6 AA→GG) (Geobacillus stearothermophilus, UniProt P00344, A222G/A223G). The settings on record: No FBP, pH 6.
Description: (§1) Steady-state reaction rates were determined by following the change in A340 due to the consumption of NADH. […] The buffer for all experiments was 100rmM triethanolamine-HC1/NaOH,pH 6.
Experiment [2] addresses T2, Bacillus stearothermophilus L-lactate dehydrogenase variant MVS/GG (102-5 QKP→MVS and 235-6 AA→GG) (Geobacillus stearothermophilus, UniProt P00344, A222G/A223G/K87V/P88S/Q86M).
T2 construct: made in house; host or cells: E. coli TG2, vector pKK223-3
The experiment is described as follows: biochemical.
Description: as §1

In experiment [3] the target is T3, Bacillus stearothermophilus NAD-dependent L-lactate dehydrogenase, wild type (WT) (Geobacillus stearothermophilus, UniProt P00344).
T3 construct: made in house; host or cells: E. coli
T3 sequence (P00344 whole entry): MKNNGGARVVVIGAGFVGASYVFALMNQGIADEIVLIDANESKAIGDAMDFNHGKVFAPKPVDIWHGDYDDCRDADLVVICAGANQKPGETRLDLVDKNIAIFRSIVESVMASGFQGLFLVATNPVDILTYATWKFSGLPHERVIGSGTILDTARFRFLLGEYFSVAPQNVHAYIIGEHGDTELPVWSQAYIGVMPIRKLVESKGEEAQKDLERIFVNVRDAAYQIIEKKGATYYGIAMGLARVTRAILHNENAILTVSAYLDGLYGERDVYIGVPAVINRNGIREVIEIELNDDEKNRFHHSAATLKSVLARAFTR
The experiment is described as follows: biochemical. The settings on record: pH 6, read-out: stimulation in kcat/Km by FBP.
Description: as §1

In experiment [4] the target is T4, Bacillus stearothermophilus L-lactate dehydrogenase variant MVS (102-5 QKP→MVS) (Geobacillus stearothermophilus, UniProt P00344, K87V/P88S/Q86M).
T4 construct: made in house; host or cells: E. coli TG2, vector pKK223-3
T4 sequence (P00344 whole entry Q86M/K87V/P88S): as the sequence (P00344 whole entry) above, with Q86M, K87V, P88S counted along it
Description: biochemical. The following applies: pH 6, read-out: stimulation in kcat/Km by FBP.
Description: as §1

Experiment [5] addresses T1, Bacillus stearothermophilus L-lactate dehydrogenase variant GG (235-6 AA→GG). The experiment is described as follows: biochemical. The following applies: pH 6, read-out: stimulation in kcat/Km by FBP.
Description: as §1

T1 sequence (P00344 whole entry A222G/A223G, the tested form may be a part): as the sequence (P00344 whole entry) above, with A222G, A223G counted along it
T2 sequence (P00344 whole entry Q86M/K87V/P88S/A222G/A223G, the tested form may be a part): as the sequence (P00344 whole entry) above, with Q86M, K87V, P88S, A222G, A223G counted along it

For the compound `CC(=O)C(=O)O` [Pyruvate], the Michaelis constant (Km) is above 50 mM in experiment [1] and above 50 mM in experiment [2] (MVS/GG, No FBP, pH 6).
With `O=C(COP(=O)(O)O)[C@@H](O)[C@H](O)[C@H](O)COP(=O)(O)O` [FBP, fructose-1,6-bisphosphate], the fold induction at 5000 µM in experiment [3] came to 50; in experiment [4], 100; in experiment [2] (pH 6, read-out: stimulation in kcat/Km by FBP), 16; in experiment [5] it was 60.

What is called Km is the concentration of substrate that gives half-maximal velocity.
